Experimental data from patent US20210078988A1, “MODULATORS OF INDOLEAMINE 2,3-DIOXYGENASE” (GLAXOSMITHKLINE INTELLECTUAL PROPERTY DEVELOPMENT LIMITED, priority 2017, published 2021).

Molecular target: T1, indoleamine 2, 3-dioxygenase (IDO1) (Homo sapiens, UniProt P14902)
T1 construct: human peripheral blood mononuclear cells (PBMC) (PB003F; host or cells: human PBMC stimulated with IFN-gamma and LPS
Assay: PBMC IDO1 assay (kynurenine detection via mass spectrometry)
Format: cell-based
Details: human PBMC stimulated with IFN-γ and LPS, 2 days, kynurenine by mass spectrometry; read-out: IDO1 PBMC pIC50 (converted)
Outline: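 Human PBMCs (50,000/well) stimulated with IFN-γ 100 ng/ml and LPS 50 ng/ml were exposed to 11-point 3-fold compound dilutions for 2 days at 37 °C. Supernatant kynurenine was quantified by RapidFire MS relative to an internal standard; parallel CellTiter-Glo ATP luminescence measured cytotoxicity, with four-parameter curve fitting.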

T1 sequence (P14902 whole entry): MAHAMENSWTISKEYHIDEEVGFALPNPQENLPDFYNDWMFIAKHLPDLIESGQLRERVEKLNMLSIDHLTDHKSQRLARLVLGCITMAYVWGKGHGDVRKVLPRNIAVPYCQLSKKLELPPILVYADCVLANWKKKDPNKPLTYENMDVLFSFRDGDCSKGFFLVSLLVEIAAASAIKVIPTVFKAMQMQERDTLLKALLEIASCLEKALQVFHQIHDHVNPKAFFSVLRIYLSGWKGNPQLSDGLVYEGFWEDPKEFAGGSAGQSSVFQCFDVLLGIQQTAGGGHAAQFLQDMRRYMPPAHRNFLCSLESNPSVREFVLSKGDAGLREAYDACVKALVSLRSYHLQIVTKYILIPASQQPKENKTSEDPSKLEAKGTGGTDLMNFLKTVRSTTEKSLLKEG

| IC50 [nM] | Compound |
| --- | --- |
| 251 | CC(C)(C)OC(=O)N1CCC(CC(NC(=O)c2ccc(F)cc2)c2nc(C3CCCC3)no2)CC1 (stereo not shown) [Example 198, tert-butyl 4-(2-(3-cyclopentyl-1,2,4-oxadiazol-5-yl)-2-(4-fluorobenzamido)ethyl)piperidine-1-carboxylate] |
| 316 | CC(C)(C)OC(=O)N1CCC(CC(NC(=O)c2cccc(Cl)c2)c2ccccc2)CC1 (stereo not shown) [Example 199, tert-butyl 4-(2-(3-chlorobenzamido)-2-phenylethyl)piperidine-1-carboxylate] |
| 316 | CC(C)(C)OC(=O)N1CCC(CC(NC(=O)Nc2ccc(F)cc2)c2ccccc2)CC1 (stereo not shown) [Example 200, tert-butyl 4-(2-(3-(4-fluorophenyl)ureido)-2-phenylethyl)piperidine-1-carboxylate] |
| 316 | CC(C)(C)OC(=O)N1CCC(CC(NC(=O)C23CCC(CC2)CC3)c2ccccc2)CC1 (stereo not shown) [Example 201, tert-butyl 4-(2-(bicyclo[2.2.2]octane-1-carboxamido)-2-phenylethyl)piperidine-1-carboxylate] |
| 316 | COCCOc1ccc(C(CC2CCN(C(=O)OC(C)(C)C)CC2)NC(=O)c2ccc(F)cc2)cn1 (stereo not shown) [Example 202, tert-butyl 4-(2-(4-fluorobenzamido)-2-(6-(2-methoxyethoxy)pyridin-3-yl)ethyl)piperidine-1-carboxylate] |
| 316 | CC(C)(C)OC(=O)N1CCC(CC(NC(=O)c2ccc(F)c(Cl)c2)c2ccccc2)CC1 (stereo not shown) [Example 203, tert-butyl 4-(2-(3-chloro-4-fluorobenzamido)-2-phenylethyl)piperidine-1-carboxylate] |
| 316 | Cc1ccc(C(=O)NC(CC2CCN(C(=O)OC(C)(C)C)CC2)c2ccccc2)o1 (stereo not shown) [Example 204, tert-butyl 4-(2-(5-methylfuran-2-carboxamido)-2-phenylethyl)piperidine-1-carboxylate] |
| 316 | CC(C)(C)OC(=O)N1CCC(CC(NC(=O)c2ccc(Cl)c(Cl)c2)c2ccccc2)CC1 (stereo not shown) [Example 205, tert-butyl 4-(2-(3,4-dichlorobenzamido)-2-phenylethyl)piperidine-1-carboxylate] |
| 316 | COC(=O)N1CCC(C[C@@H](NC(=O)c2ccc(Cl)s2)C2CC2)CC1 [Example 206, (R)-methyl 4-(2-(5-chlorothiophene-2-carboxamido)-2-cyclopropylethyl)piperidine-1-carboxylate] |
| 398 | CC(C)(C)OC(=O)N1CCC(CC(NC(=O)c2ccc(F)cc2)c2cccnc2)CC1 (stereo not shown) [Example 207, tert-butyl 4-(2-(4-fluorobenzamido)-2-(pyridin-3-yl)ethyl)piperidine-1-carboxylate] |
| 398 | CC(C)(C)OC(=O)N1CCC(CC(NC(=O)c2ccc(F)cc2)c2ccncc2)CC1 (stereo not shown) [Example 208, tert-butyl 4-(2-(4-fluorobenzamido)-2-(pyridin-4-yl)ethyl)piperidine-1-carboxylate] |
| 398 | CC(C)(C)OC(=O)N1CCC(CC(NC(=O)C2CCCCCC2)c2ccccc2)CC1 (stereo not shown) [Example 209, tert-butyl 4-(2-(cycloheptanecarboxamido)-2-phenylethyl)piperidine-1-carboxylate] |
| 398 | CC(C)(C)CC(=O)NC(CC1CCN(C(=O)OC(C)(C)C)CC1)c1ccccc1 (stereo not shown) [Example 210, tert-butyl 4-(2-(3,3-dimethylbutanamido)-2-phenylethyl)piperidine-1-carboxylate] |
| 398 | CC(C)(C)OC(=O)N1CCC(CC(NC(=O)c2cc(F)ccc2F)c2ccccc2)CC1 (stereo not shown) [Example 211, tert-butyl 4-(2-(2,5-difluorobenzamido)-2-phenylethyl)piperidine-1-carboxylate] |
| 398 | CC(C)c1ccc(C(=O)NC(CC2CCN(C(=O)OC(C)(C)C)CC2)c2ccccc2)cc1 (stereo not shown) [Example 212, tert-butyl 4-(2-(4-isopropylbenzamido)-2-phenylethyl)piperidine-1-carboxylate] |
| 398 | Cc1cc(C(=O)NC(CC2CCN(C(=O)OC(C)(C)C)CC2)c2ccccc2)ccc1F (stereo not shown) [Example 213, tert-butyl 4-(2-(4-fluoro-3-methylbenzamido)-2-phenylethyl)piperidine-1-carboxylate] |
| 398 | CC(C)(C)OC(=O)N1CCC(C[C@@H](NC(=O)c2ccc(Cl)s2)C2CC2)CC1 [Example 214, (R)-tert-butyl 4-(2-(5-chlorothiophene-2-carboxamido)-2-cyclopropylethyl)piperidine-1-carboxylate] |
| 398 | O=C(NC(CC1CCN(S(=O)(=O)c2ccccc2)CC1)c1ccccc1)c1ccc(Cl)cc1 (stereo not shown) [Example 215, 4-chloro-N-(1-phenyl-2-(1-(phenylsulfonyl)piperidin-4-yl)ethyl)benzamide] |
| 501 | COc1cccc(C(=O)NC(CC2CCN(C(=O)OC(C)(C)C)CC2)c2ccccc2)c1 (stereo not shown) [Example 216, tert-butyl 4-(2-(3-methoxybenzamido)-2-phenylethyl)piperidine-1-carboxylate] |
| 501 | Cc1ccc(C(=O)NC(CC2CCN(C(=O)OC(C)(C)C)CC2)c2ccccc2)cn1 (stereo not shown) [Example 217, tert-butyl 4-(2-(6-methylnicotinamido)-2-phenylethyl)piperidine-1-carboxylate] |
| 501 | Cc1ccc(C(=O)NC(CC2CCN(C(=O)OC(C)(C)C)CC2)c2ccccc2)c(F)c1 (stereo not shown) [Example 218, tert-butyl 4-(2-(2-fluoro-4-methylbenzamido)-2-phenylethyl)piperidine-1-carboxylate] |
| 501 | CC(C)(C)OC(=O)N1CCC(CC(NC(=O)c2ccccc2F)c2ccccc2)CC1 (stereo not shown) [Example 219, tert-butyl 4-(2-(2-fluorobenzamido)-2-phenylethyl)piperidine-1-carboxylate] |
| 501 | CC(C)(C)OC(=O)N1CCC(CC(NC(=O)c2ccc[nH]2)c2ccccc2)CC1 (stereo not shown) [Example 220, tert-butyl 4-(2-phenyl-2-(1H-pyrrole-2-carboxamido)ethyl)piperidine-1-carboxylate] |
| 501 | CC(C)(C)OC(=O)N1CCC(CC(NC(=O)c2ccc(F)cc2)c2nnc(C3CC3)o2)CC1 (stereo not shown) [Example 221, tert-butyl 4-(2-(5-cyclopropyl-1,3,4-oxadiazol-2-yl)-2-(4-fluorobenzamido)ethyl)piperidine-1-carboxylate] |
| 501 | CC(=O)N1CCC(CC(NC(=O)c2ccc(Cl)cc2)c2ccccc2)CC1 (stereo not shown) [Example 222, N-(2-(1-acetylpiperidin-4-yl)-1-phenylethyl)-4-chlorobenzamide] |
| 501 | CC(C)c1nnc(C(CC2CCN(C(=O)OC(C)(C)C)CC2)NC(=O)c2ccc(F)cc2)o1 (stereo not shown) [Example 223, tert-butyl 4-(2-(4-fluorobenzamido)-2-(5-isopropyl-1,3,4-oxadiazol-2-yl)ethyl)piperidine-1-carboxylate] |
| 501 | CC(C)(C)OC(=O)N1CCC(CC(NC(=O)c2ccc(Cl)s2)c2n[nH]c(=O)o2)CC1 (stereo not shown) [Example 224, tert-butyl 4-(2-(5-chlorothiophene-2-carboxamido)-2-(5-oxo-4,5-dihydro-1,3,4-oxadiazol-2-yl)ethyl)piperidine-1-carboxylate] |
| 501 | CC(C)CNCC(CC1CCN(C(=O)OC(C)(C)C)CC1)NC(=O)c1ccc(F)cc1 (stereo not shown) [Example 225, tert-butyl 4-(2-(4-fluorobenzamido)-3-(isobutylamino)propyl)piperidine-1-carboxylate] |
